Reference: patent publication EP1793002A1 (priority 2004, dated 2006)
Read-outs that look alike come from different tables or passages of the source.

Assays:
[1] = molecular target: T1, luciferase standard enzyme (Photinus pyralis, UniProt P08659); details: 2 mM; for Max RLU / Max Time: with 2 mM sodium diethyldithiocarbamate, 10% glycerol; for Max RLU%: relative to the system without pyrophosphoric acid (no PPi)
Experimental: A "luciferase luminescent reagent" containing 20 mM tricine, 1.07 mM (MgCO3)4Mg(OH)2.5H2O, 2.67 mM magnesium sulfate, 0.1 mM EDTA, 470 µM luciferin and 530 µM adenosine triphosphate (ATP), pH 7.8 was prepared in accordance with the formulation described in the instructions included in "PicaGene Luminescent Kit" (Toyo Ink Manufacturing Co., Ltd.; product No. PGL100), except that 270 µM CoA and 33.3 mM DTT (thiol reagents) mentioned in the instructions were not added. […] In both reagents thus prepared, glycerol (final concentration: 10%) was allowed to co-exist in order to promote stabilization of luciferase enzyme.
A luciferase enzyme solution (100 ng/ml) was prepared by diluting "luciferase standard enzyme (10 µg/ml)" included in "PicaGene Luminescent Kit" (Toyo Ink Manufacturing Co., Ltd.; product No. PGL100) with "PicaGene Cell Lysis Reagent LUC" (Toyo Ink Manufacturing Co., Ltd.; product No. PGC50). 10 µl of this luciferase enzyme solution was taken into a cuvette of a luminometer (Berthold, LB9506). First, 100 µl of the "luciferase luminescent reagent" prepared above was added to the enzyme solution. Immediately after the addition, the resulting mixed solution was loaded onto the luminometer, and the quantity of light emitted (RLU/sec) was measured for the initial 200 seconds at intervals of 25 seconds. Then, the quantity of light emitted was measured in the same manner using the "luciferase luminescent reagent (+improvement)".

[2] = molecular target: T1, luciferase standard enzyme; details: 1.5mM PPiK; relative to w/o pyrophosphoric acid
Experimental: A "luciferase luminescent reagent" containing 20 mM tricine, 1.07 mM (MgCO3)4Mg(OH)2.5H2O, 2.67 mM magnesium sulfate, 0.1 mM EDTA, 33.3 mM DTT, 470 µM luciferin, 270 µM CoA and 530 µM adenosine triphosphate (ATP), pH 7.8 was prepared in accordance with the formulation described in the instructions included in "PicaGene Luminescent Kit" (Toyo Ink Manufacturing Co., Ltd.; product No. PGL100). […] Further, glycerol and DTT were allowed to co-exist in each of the above luminescent reagents at final concentrations of 10% and 1 mM, respectively, in order to promote the stabilization of luciferase enzyme.
A luciferase enzyme solution (100 ng/ml) was prepared by diluting "luciferase standard enzyme (10 µg/ml)" included in "PicaGene Luminescent Kit" (Toyo Ink Manufacturing Co., Ltd.; product No. PGL100) with "PicaGene Cell Lysis Reagent LUC" (Toyo Ink Manufacturing Co., Ltd.; product No. PGC50). 10 µl of this luciferase enzyme solution was dispensed into each well of a microtiter plate. Subsequently, 100 µl of the above-described luminescent reagent was added to the enzyme solution in each well. […] Since luciferin/luciferase luminescent reactions are greatly affected by temperature, all operations and measurements with a luminometer were performed in a thermostatic chamber set at 23°C.
Then, the above-described operations were repeated. […]

[3] = tested on: luciferin/luciferase luminescent reactions; details: for Max RLU / Max Time: 1 mM in ATP luminescent reagent; for Max RLU%: relative to the reaction system without pyrophosphoric acid (no PPi)
Experimental: To a 5 ml aliquot of this reagent, pyrophosphoric acid (Wako Purechemical Industries, Ltd.) was added to give a final concentration of 1 mM. Subsequently, ATP standard reagent (ATP concentration = 1 x 10^-12 M) included in the kit was dispensed into a microtiter plate at 100 µl/well. […] The same operations were performed on ATP luminescent reagent without pyrophosphoric acid. Further, ATP luminescent reagent to which potassium pyrophosphate or sodium pyrophosphate was added at a final concentration of 1 mM instead of pyrophosphoric acid was also prepared, and the above-described operations were performed.

[4] = tested on: luciferase enzyme; assay: ATP assay, time course of light emission with ATP luminescent reagent (Example 3, microtiter plate, 23°C); type: biochemical; details: 2 mM, added as organic sulfur reagent
Description: Then, the above-described operations were repeated.

T1 sequence (P08659 whole entry): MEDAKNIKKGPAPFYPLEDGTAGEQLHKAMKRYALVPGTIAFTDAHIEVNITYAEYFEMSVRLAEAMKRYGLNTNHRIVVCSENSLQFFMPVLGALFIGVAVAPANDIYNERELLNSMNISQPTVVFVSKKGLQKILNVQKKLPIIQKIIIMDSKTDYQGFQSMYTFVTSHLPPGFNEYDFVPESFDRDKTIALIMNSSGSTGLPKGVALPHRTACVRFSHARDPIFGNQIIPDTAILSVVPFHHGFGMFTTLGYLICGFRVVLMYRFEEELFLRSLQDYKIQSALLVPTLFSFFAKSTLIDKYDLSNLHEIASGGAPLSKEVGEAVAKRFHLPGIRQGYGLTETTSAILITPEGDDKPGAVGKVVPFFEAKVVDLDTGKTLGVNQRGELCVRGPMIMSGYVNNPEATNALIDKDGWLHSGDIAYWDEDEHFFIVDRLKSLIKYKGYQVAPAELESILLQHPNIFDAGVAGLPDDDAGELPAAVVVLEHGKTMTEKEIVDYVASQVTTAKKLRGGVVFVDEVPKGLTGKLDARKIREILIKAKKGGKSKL

| SMILES | Max RLU [1] [RLU] | Max Time [1] [min] | Max RLU% [1] [%] | Max RLU% [2] [%] | Max RLU [3] [RLU] | Max Time [3] [min] | Max RLU% ([3]; 1 mM) [%] | initial luminescence ([3]; 1 mM, relative to the initial luminescence with the ATP luminescent reagent) [%] | time at which the quantity of light emitted reached the maximum value ([3]; after the start of the measurement) [min] | effect on the stabilization of luminescent reactions [4] |
| --- | --- | --- | --- | --- | --- | --- | --- | --- | --- | --- |
| O=P([O-])([O-])OP(=O)([O-])[O-].[K+].[K+].[K+].[K+] [PPiK, potassium pyrophosphate] | 31448.0 | 12 | 25.6 | 27.5 | 16800.3 | 15 | 26.6 |  |  |  |
| O=P(O)(O)OP(=O)(O)O [PPi, pyrophosphoric acid] | 67904.5 | 6 | 55.4 |  | 30874.3 | 5 | 48.9 | ≤ 50 | 5 |  |
| O=P([O-])([O-])OP(=O)([O-])[O-].[Na+].[Na+].[Na+].[Na+] [PPiNa, sodium pyrophosphate] | 30290.8 | 12 | 24.7 |  | 15275.5 | 25 | 24.2 |  |  |  |
| CCN(CC)C(=S)[S-].[Na+] [organic sulfur reagent, sodium diethyldithiocarbamate] |  |  |  |  |  |  |  |  |  | no effect on the stabilization of luminescent reactions |
